Assay type in all cases: in vivo
Experiment [1] deals with Zea mays (ZEAMX). The experiment in a line: Pre-emergence Test (glasshouse, percentage damage to the plant). Conditions: 1000 g/ha unless otherwise stated, five-point scale.
The subject of experiment [2] is Echinochloa crus-galli (ECHCG). Described as above. As to conditions: 1000 g/ha unless otherwise stated, five-point scale.
The subject of experiment [3] is Ipomoea hederacea (IPOHE). Described as above. As to conditions: 1000 g/ha unless otherwise stated, five-point scale.
Experiment [4] concerns Echinochloa crus-galli (ECHCG). The experiment in a line: Post-emergence Test (glasshouse, percentage damage to the plant). As to conditions: post-emergence spray, 1000 g/ha unless otherwise stated, evaluated after 13 days. The procedure, abridged:
(§1)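 Seeds sown in standard soil in a glasshouse (24/16 °C day/night, 14 h light, 65% humidity), then sprayed with an aqueous solution of the compound formulated in acetone/water 50:50 with 0.5% Tween 20 at 1000 g/ha unless otherwise stated. Percentage damage was scored after 13 days on a five-point scale (5=81-100%; 1=0-20%).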

Experiment [5] concerns Abutilon theophrasti (ABUTH). The description is as above. Conditions: post-emergence spray, 1000 g/ha unless otherwise stated, evaluated after 13 days. The procedure, abridged:
as §1

In experiment [6] the test system is Setaria faberi (SETFA). The description is as above. As to conditions: post-emergence spray, 1000 g/ha unless otherwise stated, evaluated after 13 days. The procedure, abridged:
(§2)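 After sowing in standard soil, pots were kept at 24/16 °C (day/night), 14 h light and 65% humidity. They were sprayed at 1000 g/ha unless otherwise stated, watered twice daily, and assessed for percentage damage at 13 days on a 1–5 scale.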

The test system of experiment [7] is Amaranthus retoflexus (AMARE). Described as above. Conditions: post-emergence spray, 1000 g/ha unless otherwise stated, evaluated after 13 days. In a few lines:
as §1

Experiment [8] concerns Zea mays (ZEAMX). The experiment is described as above. As to conditions: post-emergence spray, 1000 g/ha unless otherwise stated, evaluated after 13 days. In a few lines:
as §2

In experiment [9] the test system is Ipomoea hederacea (IPOHE). The description is as above. Conditions: post-emergence spray, 1000 g/ha unless otherwise stated, evaluated after 13 days. The procedure, abridged:
as §2

Experiment [10] relates to Abutilon theophrasti (ABUTH). The experiment in a line: Pre-emergence Test (glasshouse, percentage damage to the plant). As to conditions: 1000 g/ha unless otherwise stated, five-point scale.
Experiment [11] deals with Amaranthus retoflexus (AMARE). The experiment is described as above. Conditions: 1000 g/ha unless otherwise stated, five-point scale.
Experiment [12] concerns Setaria faberi (SETFA). The description is as above. As to conditions: 1000 g/ha unless otherwise stated, five-point scale.

This note sets out measurements from patent US12660819B2, “Herbicidal derivatives” (SYNGENTA CROP PROTECTION AG, priority 2020, dated 2026).

For `CCn1c(C)c(-c2ccc(C#N)cc2)c(=O)c(C(=O)O)c1-c1ccc(Cl)c(Cl)n1` [Compound 146, 5-(4-cyanophenyl)-2-(5,6-dichloro-2-pyridyl)-1-ethyl-6-methyl-4-oxo-oyridine-3-carboxylic acid], the “percentage damage to the plant, ZEAMX” value with Zea mays (ZEAMX) [1] was 1 (1=0-20%). Besides, the “percentage damage to the plant, ECHCG” value in experiment [2] is given as 4 (4=61-80%). For the same molecule, the “percentage damage to the plant, IPOHE” value in experiment [3] turned out to be 0. Further, the “Post-emergence Test ECHCG, percentage damage to the plant (five-point scale)” value in experiment [4] is listed as 4 (4=61-80%). The “Post-emergence Test ABUTH, percentage damage to the plant (five-point scale)” value in experiment [5] was 3 (3=41-60%). The “Post-emergence Test SETFA, percentage damage to the plant (five-point scale)” value in the experiment on Setaria faberi (SETFA) [6] was 4 (4=61-80%). For the same molecule, in experiment [7], the “Post-emergence Test AMARE, percentage damage to the plant (five-point scale)” value is 2 (2=21-40%). Also, in the experiment on Zea mays (ZEAMX) [8], the “Post-emergence Test ZEAMX, percentage damage to the plant (five-point scale)” value is given as 3 (3=41-60%). In addition, in [9], the “Post-emergence Test IPOHE, percentage damage to the plant (five-point scale)” value is 4 (4=61-80%). Further, the “percentage damage to the plant, ABUTH” value in experiment [10] is on record as 1 (1=0-20%). Also, in [11], the “percentage damage to the plant, AMARE” value is 1 (1=0-20%). Further, the “percentage damage to the plant, SETFA” value with Setaria faberi (SETFA) [12] is recorded as 4 (4=61-80%).

Consider `CCOc1ccc(-c2c(C)n(CC)c(-c3ccc(Cl)c(Cl)c3)c(C(=O)O)c2=O)cc1` [Compound 96, 2-(3,4-dichlorophenyl)-5-(4-ethoxyphenyl)-1-ethyl-6-methyl-4-oxo-pyridine-3-carboxylic acid], for which the “percentage damage to the plant, ZEAMX” value in the experiment on Zea mays (ZEAMX) [1] is listed as 1 (1=0-20%). In addition, in experiment [2], the “percentage damage to the plant, ECHCG” value is reported as 1 (1=0-20%). Besides, the “percentage damage to the plant, IPOHE” value in experiment [3] is 1 (1=0-20%). Moreover, the “Post-emergence Test ECHCG, percentage damage to the plant (five-point scale)” value in experiment [4] is 2 (2=21-40%). The “Post-emergence Test ABUTH, percentage damage to the plant (five-point scale)” value in experiment [5] is given as 4 (4=61-80%). For the same molecule, the “Post-emergence Test SETFA, percentage damage to the plant (five-point scale)” value with Setaria faberi (SETFA) [6] is reported as 3 (3=41-60%). Besides, the “Post-emergence Test AMARE, percentage damage to the plant (five-point scale)” value in [7] is 1 (1=0-20%). For the same molecule, the “Post-emergence Test ZEAMX, percentage damage to the plant (five-point scale)” value in the experiment with Zea mays (ZEAMX) [8] is reported as 2 (2=21-40%). Further, the “Post-emergence Test IPOHE, percentage damage to the plant (five-point scale)” value in [9] is on record as 3 (3=41-60%). In addition, the “percentage damage to the plant, ABUTH” value in [10] is reported as 1 (1=0-20%). For the same molecule, the “percentage damage to the plant, AMARE” value in experiment [11] is listed as 1 (1=0-20%). Moreover, the “percentage damage to the plant, SETFA” value in the experiment on Setaria faberi (SETFA) [12] is given as 2 (2=21-40%).

As for `CCOC(=O)c1c(-c2ccc(F)c(F)c2)n(CC)c(C)c(-c2ccc(Cl)cc2)c1=O` [Compound 152, ethyl 5-(4-chlorophenyl)-2-(3,4-difluorophenyl)-1-ethyl-6-methyl-4-oxo-pyridine-3-carboxylate], the “percentage damage to the plant, ZEAMX” value in the experiment with Zea mays (ZEAMX) [1] was 0. The “percentage damage to the plant, ECHCG” value in [2] was found to be 0. Also, the “percentage damage to the plant, IPOHE” value in experiment [3] was 0. In addition, the “Post-emergence Test ECHCG, percentage damage to the plant (five-point scale)” value in experiment [4] was determined as 0. In experiment [5], the “Post-emergence Test ABUTH, percentage damage to the plant (five-point scale)” value is 0. The “Post-emergence Test SETFA, percentage damage to the plant (five-point scale)” value in the experiment on Setaria faberi (SETFA) [6] is 0. Further, the “Post-emergence Test AMARE, percentage damage to the plant (five-point scale)” value in experiment [7] was 0. Besides, the “Post-emergence Test ZEAMX, percentage damage to the plant (five-point scale)” value in the experiment with Zea mays (ZEAMX) [8] is reported as 0. The “Post-emergence Test IPOHE, percentage damage to the plant (five-point scale)” value in experiment [9] is 0. Moreover, the “percentage damage to the plant, ABUTH” value in [10] came out at 0. Also, the “percentage damage to the plant, AMARE” value in experiment [11] is recorded as 0. The “percentage damage to the plant, SETFA” value in the experiment on Setaria faberi (SETFA) [12] is reported as 0.

On to `CCn1c(C)c(-c2ccc(OC)c(F)c2)c(=O)c(C(=O)O)c1-c1ccc(Cl)c(Cl)c1` [Compound 102, 2-(3,4-dichlorophenyl)-1-ethyl-5-(3-fluoro-4-methoxy-phenyl)-6-methyl-4-oxo-pyridine-3-carboxylic acid], for which the “percentage damage to the plant, ZEAMX” value in the experiment with Zea mays (ZEAMX) [1] is given as 1 (1=0-20%). Besides, the “percentage damage to the plant, ECHCG” value in experiment [2] is given as 2 (2=21-40%). In experiment [3], the “percentage damage to the plant, IPOHE” value is reported as 3 (3=41-60%). The “Post-emergence Test ECHCG, percentage damage to the plant (five-point scale)” value in experiment [4] was 3 (3=41-60%). For the same molecule, the “Post-emergence Test ABUTH, percentage damage to the plant (five-point scale)” value in experiment [5] is recorded as 3 (3=41-60%). Besides, in the experiment with Setaria faberi (SETFA) [6], the “Post-emergence Test SETFA, percentage damage to the plant (five-point scale)” value is given as 4 (4=61-80%). In addition, the “Post-emergence Test AMARE, percentage damage to the plant (five-point scale)” value in experiment [7] is on record as 3 (3=41-60%). The “Post-emergence Test ZEAMX, percentage damage to the plant (five-point scale)” value in the experiment on Zea mays (ZEAMX) [8] is reported as 1 (1=0-20%). Also, in experiment [9], the “Post-emergence Test IPOHE, percentage damage to the plant (five-point scale)” value is 3 (3=41-60%). The “percentage damage to the plant, ABUTH” value in experiment [10] is 3 (3=41-60%). In experiment [11], the “percentage damage to the plant, AMARE” value is 2 (2=21-40%). Besides, the “percentage damage to the plant, SETFA” value in the experiment with Setaria faberi (SETFA) [12] was 4 (4=61-80%).

In the case of `CCn1c(C)c(-c2cccc(C(C)=O)c2)c(=O)c(C(=O)O)c1-c1ccc(Cl)c(Cl)c1` [Compound 112, 5-(3-acetylphenyl)-2-(3,4-dichlorophenyl)-1-ethyl-6-methyl-4-oxo-pyridine-3-carboxylic acid], the “percentage damage to the plant, ZEAMX” value in the experiment with Zea mays (ZEAMX) [1] was 1 (1=0-20%). In addition, the “percentage damage to the plant, ECHCG” value in experiment [2] is on record as 1 (1=0-20%). The “percentage damage to the plant, IPOHE” value in [3] is given as 1 (1=0-20%). In [4], the “Post-emergence Test ECHCG, percentage damage to the plant (five-point scale)” value is 3 (3=41-60%). Also, the “Post-emergence Test ABUTH, percentage damage to the plant (five-point scale)” value in experiment [5] is on record as 3 (3=41-60%). In addition, in the experiment on Setaria faberi (SETFA) [6], the “Post-emergence Test SETFA, percentage damage to the plant (five-point scale)” value was 4 (4=61-80%). The “Post-emergence Test AMARE, percentage damage to the plant (five-point scale)” value in experiment [7] is 2 (2=21-40%). In addition, in the experiment on Zea mays (ZEAMX) [8], the “Post-emergence Test ZEAMX, percentage damage to the plant (five-point scale)” value is on record as 1 (1=0-20%). Also, in experiment [9], the “Post-emergence Test IPOHE, percentage damage to the plant (five-point scale)” value is 2 (2=21-40%). Moreover, the “percentage damage to the plant, ABUTH” value in [10] is given as 2 (2=21-40%). Moreover, the “percentage damage to the plant, AMARE” value in experiment [11] is 1 (1=0-20%). Besides, the “percentage damage to the plant, SETFA” value with Setaria faberi (SETFA) [12] was 4 (4=61-80%).

With `CCn1c(C)c(-c2ccc(Cl)cc2)c(=O)c(C(=O)O)c1-c1ccnc(Cl)c1` [Compound 143, 5-(4-chlorophenyl)-2-(2-chloro-4-pyridyl)-1-ethyl-6-methyl-4-oxo-pyridine-3-carboxylic acid], the “percentage damage to the plant, ZEAMX” value with Zea mays (ZEAMX) [1] is 3 (3=41-60%). Further, the “percentage damage to the plant, ECHCG” value in experiment [2] was 5 (5=81-100%). Further, the “percentage damage to the plant, IPOHE” value in experiment [3] is given as 1 (1=0-20%). Further, the “Post-emergence Test ECHCG, percentage damage to the plant (five-point scale)” value in experiment [4] is reported as 4 (4=61-80%). Moreover, the “Post-emergence Test ABUTH, percentage damage to the plant (five-point scale)” value in [5] is listed as 4 (4=61-80%). For the same molecule, the “Post-emergence Test SETFA, percentage damage to the plant (five-point scale)” value with Setaria faberi (SETFA) [6] is on record as 4 (4=61-80%). For the same molecule, the “Post-emergence Test AMARE, percentage damage to the plant (five-point scale)” value in experiment [7] is reported as 2 (2=21-40%). The “Post-emergence Test ZEAMX, percentage damage to the plant (five-point scale)” value with Zea mays (ZEAMX) [8] is 4 (4=61-80%). Further, in [9], the “Post-emergence Test IPOHE, percentage damage to the plant (five-point scale)” value is reported as 4 (4=61-80%). Besides, the “percentage damage to the plant, ABUTH” value in [10] is 3 (3=41-60%). The “percentage damage to the plant, AMARE” value in experiment [11] is given as 1 (1=0-20%). Also, the “percentage damage to the plant, SETFA” value in the experiment on Setaria faberi (SETFA) [12] is listed as 5 (5=81-100%).
